In ChEMBL document CHEMBL1201862, “PubChem BioAssay data set” (2004):
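Five concentrations, 48 hours, 96-well plates. The concentration for 50% growth inhibition is given as GI50.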 Calls of active or inactive are those of the source. Cut-off read from the data, not from the text of the source: active = GI50 up to about 1.1 µM and inactive = higher.

Columns and labels:
Assay in all cases: growth of human tumour cells (NCI), 48 h
EKVX = test system: EKVX
IGROV-1 = test system: IGROV-1
MOLT-4 = test system: MOLT-4
HOP-62 = test system: HOP-62
HOP-92 = test system: HOP-92
NCI-H23 = test system: NCI-H23
SK-MEL-5 = test system: SK-MEL-5
UACC-62 = test system: UACC-62
OVCAR-5 = test system: OVCAR-5
HCC 2998 = test system: HCC 2998
OVCAR-3 = test system: OVCAR-3
KM12 = test system: KM12
SF-295 = test system: SF-295
A549 = test system: A549
SK-MEL-2 = test system: SK-MEL-2
RXF 393 = test system: RXF 393
TK-10 = test system: TK-10
NCI-H522 = test system: NCI-H522
NCI-H226 = test system: NCI-H226

Measured: GI50

O=C1CCC(=O)N1CNc1cccc(NCN2C(=O)CCC2=O)c1
inactive: EKVX > 100 µM | IGROV-1 87.9 µM | MOLT-4 52.6 µM | HOP-62 > 100 µM | HOP-92 > 100 µM | NCI-H23 > 100 µM | SK-MEL-5 > 100 µM | UACC-62 48.5 µM | OVCAR-5 > 100 µM | HCC 2998 > 100 µM | OVCAR-3 > 100 µM | KM12 > 100 µM | SF-295 > 100 µM | A549 > 100 µM | SK-MEL-2 > 100 µM | RXF 393 > 100 µM | TK-10 > 100 µM | NCI-H522 > 100 µM

CN(OC(=O)CC(=O)c1ccccc1)C(=O)Cc1ccccc1
inactive: EKVX > 100 µM | IGROV-1 > 100 µM | HOP-62 > 100 µM | NCI-H23 > 100 µM | SK-MEL-5 > 100 µM | UACC-62 > 100 µM | OVCAR-5 > 100 µM | OVCAR-3 > 100 µM | KM12 > 100 µM | SF-295 > 100 µM | A549 > 100 µM | SK-MEL-2 > 100 µM | TK-10 > 100 µM | NCI-H522 > 100 µM | NCI-H226 > 100 µM

C/C=C1\CN(C(=O)OC(C)(C)C)C1C(=O)OC(C)(C)C (stereo not drawn)
inactive: EKVX > 100 µM | IGROV-1 > 100 µM | MOLT-4 > 100 µM | HOP-62 > 100 µM | HOP-92 > 100 µM | NCI-H23 > 100 µM | SK-MEL-5 > 100 µM | UACC-62 > 100 µM | OVCAR-5 > 100 µM | HCC 2998 > 100 µM | OVCAR-3 94 µM | SF-295 > 100 µM | A549 > 100 µM | SK-MEL-2 > 100 µM | TK-10 > 100 µM

Cc1cccc(Nc2cn(COCc3ccccc3)c(=O)[nH]c2=O)c1
inactive: EKVX 15.3 µM | IGROV-1 29.4 µM | MOLT-4 > 100 µM | HOP-62 20.8 µM | HOP-92 > 100 µM | NCI-H23 > 100 µM | SK-MEL-5 > 100 µM | UACC-62 > 100 µM | OVCAR-5 > 100 µM | HCC 2998 > 100 µM | OVCAR-3 > 100 µM | KM12 > 100 µM | SF-295 72.1 µM | A549 > 100 µM | RXF 393 56 µM | NCI-H522 10.2 µM

O=C1c2ccccc2C(=O)N1C/C=N/NS(=O)(=O)c1ccc(F)cc1
inactive: EKVX > 100 µM | IGROV-1 > 100 µM | MOLT-4 > 100 µM | NCI-H23 > 100 µM | SK-MEL-5 > 100 µM | UACC-62 > 100 µM | HCC 2998 > 100 µM | KM12 > 100 µM | SF-295 > 100 µM | A549 > 100 µM | SK-MEL-2 > 100 µM | TK-10 > 100 µM | NCI-H522 > 100 µM | NCI-H226 > 100 µM

Sc1nnc(-c2cccnc2)[nH]1
inactive: HOP-62 > 100 µM | HOP-92 > 100 µM | NCI-H23 > 100 µM | SK-MEL-5 > 100 µM | OVCAR-5 > 100 µM | HCC 2998 > 100 µM | KM12 > 100 µM | SF-295 > 100 µM | A549 > 100 µM | SK-MEL-2 > 100 µM | RXF 393 > 100 µM | TK-10 > 100 µM

N#Cc1nc(/C=C/c2cccs2)oc1N
inactive: EKVX 33.7 µM | IGROV-1 65.9 µM | MOLT-4 45 µM | HOP-62 > 100 µM | HOP-92 35.8 µM | SK-MEL-5 51.1 µM | UACC-62 > 100 µM | OVCAR-5 > 100 µM | KM12 > 100 µM | A549 > 100 µM | SK-MEL-2 > 100 µM | RXF 393 > 100 µM | TK-10 61.4 µM

Cn1nc(-c2ccccc2)c(N=[N+]=[N-])cc1=O
inactive: EKVX > 100 µM | IGROV-1 > 100 µM | MOLT-4 > 100 µM | HOP-62 > 100 µM | NCI-H23 > 100 µM | SK-MEL-5 > 100 µM | UACC-62 > 100 µM | OVCAR-5 > 100 µM | HCC 2998 > 100 µM | OVCAR-3 > 100 µM | KM12 > 100 µM | SF-295 > 100 µM | A549 > 100 µM | RXF 393 > 100 µM | TK-10 > 100 µM | NCI-H522 > 100 µM | NCI-H226 > 100 µM

CC1CC2C(=O)N(c3ccccc3)C(=O)C2c2[nH]c3ccccc3c21 (stereo not drawn)
inactive: EKVX > 100 µM | IGROV-1 > 100 µM | MOLT-4 28.4 µM | NCI-H23 58.9 µM | SK-MEL-5 > 100 µM | UACC-62 > 100 µM | HCC 2998 > 100 µM | OVCAR-3 48.2 µM | KM12 58.5 µM | SF-295 44.8 µM | A549 94 µM | RXF 393 30.3 µM | TK-10 85.7 µM

COC(=O)C1[C@@H](C(=O)OC)C(=O)O[C@H]1c1cc(OC)c(OC)c(OC)c1 (stereo partly drawn)
inactive: IGROV-1 > 100 µM | MOLT-4 > 100 µM | HOP-62 > 100 µM | HOP-92 > 100 µM | NCI-H23 > 100 µM | SK-MEL-5 > 100 µM | UACC-62 > 100 µM | OVCAR-5 > 100 µM | HCC 2998 > 100 µM | OVCAR-3 > 100 µM | KM12 > 100 µM | SF-295 > 100 µM | A549 > 100 µM | RXF 393 > 100 µM | TK-10 > 100 µM | NCI-H226 > 100 µM

Cc1ccc(C)c(NC(=O)CC/C(=N\NC(=O)C(N)=O)C(C)C(=O)c2ccc(O)cc2)c1 (stereo not drawn)
inactive: EKVX > 100 µM | IGROV-1 > 100 µM | MOLT-4 > 100 µM | HOP-62 > 100 µM | HOP-92 > 100 µM | NCI-H23 > 100 µM | SK-MEL-5 > 100 µM | UACC-62 > 100 µM | OVCAR-5 > 100 µM | HCC 2998 > 100 µM | OVCAR-3 > 100 µM | KM12 > 100 µM | SF-295 > 100 µM | A549 > 100 µM | SK-MEL-2 > 100 µM | RXF 393 61.1 µM | NCI-H226 > 100 µM

O=C(NCCCCCCCCNC(=O)c1cnc2ccccc2n1)c1cnc2ccccc2n1
inactive: EKVX > 100 µM | IGROV-1 > 100 µM | MOLT-4 > 100 µM | HOP-62 > 100 µM | HOP-92 > 100 µM | NCI-H23 > 100 µM | SK-MEL-5 > 100 µM | UACC-62 > 100 µM | OVCAR-5 > 100 µM | OVCAR-3 > 100 µM | KM12 > 100 µM | SF-295 > 100 µM | A549 > 100 µM | SK-MEL-2 > 100 µM | RXF 393 > 100 µM | TK-10 > 100 µM | NCI-H226 32.1 µM

O=C1NC2(C=Cc3c(ccc4ccccc34)O2)Oc2ccccc21 (stereo not drawn)
inactive: EKVX 21.1 µM | IGROV-1 28.1 µM | MOLT-4 7.8 µM | HOP-62 31.7 µM | NCI-H23 26.7 µM | SK-MEL-5 13.1 µM | UACC-62 19.2 µM | OVCAR-5 36.6 µM | OVCAR-3 13.4 µM | KM12 5.18 µM | SF-295 13 µM | A549 18.7 µM | SK-MEL-2 13.2 µM | RXF 393 14.3 µM | TK-10 21.5 µM | NCI-H522 11.4 µM | NCI-H226 26.5 µM

CC(=O)Nc1ccc(S(=O)(=O)NN(C)S(=O)(=O)c2ccc(C)cc2)cc1
inactive: EKVX > 100 µM | IGROV-1 > 100 µM | MOLT-4 > 100 µM | HOP-62 > 100 µM | HOP-92 > 100 µM | NCI-H23 > 100 µM | SK-MEL-5 > 100 µM | UACC-62 > 100 µM | OVCAR-5 > 100 µM | HCC 2998 > 100 µM | OVCAR-3 > 100 µM | KM12 > 100 µM | SF-295 > 100 µM | A549 > 100 µM | SK-MEL-2 > 100 µM | RXF 393 > 100 µM | TK-10 > 100 µM | NCI-H522 > 100 µM

COc1ccccc1NCC(=O)Nn1c(C)nc2ccc(S(=O)(=O)Nc3ccccc3OC)cc2c1=O
inactive: EKVX > 100 µM | IGROV-1 42.7 µM | MOLT-4 > 100 µM | HOP-62 > 100 µM | HOP-92 > 100 µM | NCI-H23 > 100 µM | UACC-62 63.4 µM | OVCAR-5 > 100 µM | HCC 2998 > 100 µM | OVCAR-3 83.4 µM | KM12 > 100 µM | SF-295 36.1 µM | A549 97.5 µM | SK-MEL-2 > 100 µM | TK-10 > 100 µM | NCI-H522 35.6 µM | NCI-H226 > 100 µM

CN(C)c1ccc(/C=C2\Cc3ccccc3C2=O)cc1Br
inactive: EKVX 76.6 µM | IGROV-1 > 100 µM | MOLT-4 28.5 µM | HOP-62 > 100 µM | NCI-H23 39.2 µM | SK-MEL-5 26.4 µM | UACC-62 59.8 µM | OVCAR-5 79.1 µM | HCC 2998 > 100 µM | OVCAR-3 > 100 µM | KM12 43.2 µM | SF-295 > 100 µM | A549 61.4 µM | SK-MEL-2 40.6 µM | TK-10 > 100 µM | NCI-H522 23.4 µM

CCc1ccccc1NC(=O)C(=O)C(C(=O)c1ccc(OC)cc1)c1ccc(OC)cc1 (stereo not drawn)
inactive: EKVX > 100 µM | IGROV-1 > 100 µM | MOLT-4 94.2 µM | HOP-62 > 100 µM | NCI-H23 > 100 µM | SK-MEL-5 > 100 µM | UACC-62 > 100 µM | OVCAR-5 > 100 µM | HCC 2998 > 100 µM | OVCAR-3 > 100 µM | KM12 > 100 µM | SF-295 > 100 µM | A549 > 100 µM | SK-MEL-2 > 100 µM | TK-10 > 100 µM | NCI-H522 > 100 µM | NCI-H226 > 100 µM
